Experimental data from patent publication US20120065267A1, “COMPOSITIONS INCLUDING 3,5-L-T2 AND METHODS OF USE THEREOF” (priority 2010, published 2012).
Several values for one entry are separate records, joined by “and”; a condition that tells them apart may be missing. Equal entries are not always repeated.

What was measured:
[1] = tested on: C57, LDLr+/− and LDLr0 mice; assay: Serum triglycerides in mice on Western Diet given daily oral T2; type: in vivo; set-up: Triglycerides / Triglycerides (Ave): unit not given here
Procedure: (§1) This corresponds to a dosage for an 80 kg human of about 20-200 mg/day, or a low dose of about 0.2-0.3 mg/kg of body weight to a high dose of about 2-3 mg/kg of body weight. One will appreciate, however, that some subjects (e.g., subjects having very low LDL receptor function) may receive higher doses, depending on need. likewise, some subjects may receive lower doses, which again depends on need. Mice in the study were fed a standard lab chow referred to as the “Western Diet.” The overall level of fat and the saturated nature of the fat are representative diets typical in the industrialized west that are linked to risk of cardiovascular disease in humans. The formula is used primarily with genetically manipulated rodent models that are susceptible to high cholesterol and cardiovascular disease. The diet may also be useful in diet-induced obesity, diabetes, and metabolic syndrome models. High cholesterol, obesity, and diabetes are each associated increased risk for cardiovascular disease. The composition of the Western Diet is shown below. C57 is a wild-type strain, LDLr+/− are a strain carrying one functional copy of the LDLr gene, and the LDLr0 animals are total LDLr knockouts. The LDLr gene encodes for the LDL receptor protein, which is responsible for scavenging LDL with bound cholesterol from the blood and transporting it into cells. Both heterozygous and homozygous LDLr knockout animals develop very high serum cholesterol levels and are considered to be a good model for heterozygous and homozygous familial hypercholesterolemia in humans. […] LDLr knockout animals have zero LDL receptor function.

[2] = tested on: rats; conditions: 250 mcg/kg p.o. q.d. for 30 days, cited from earlier work
[3] = tested on: growth hormone gene expression; conditions: cited from earlier work
[4] = tested on: thyroid receptor homodimer; conditions: in contrast to T3; cited from earlier work
[5] = tested on: C57, LDLr+/− and LDLr0 mice; assay: Blood sugar (serum glucose) in mice on Western Diet given daily oral T2; type: in vivo; set-up: Blood Sugar / Blood Sugar Ave: unit not given here; conditions: for Blood Sugar Ave / Blood Sugar: Western Diet
Procedure: as §1

[6] = tested on: TR β gene expression; conditions: relative to T3; cited from earlier work
[7] = Body weight of mice on Western Diet given low or high dose T2; type: in vivo; conditions: C57 mice
Procedure: as §1

For `N[C@@H](Cc1cc(I)c(Oc2ccc(O)cc2)c(I)c1)C(=O)O` [T2, (2S)-2-amino-3-[4-(4-hydroxyphenoxy)-3,5-diiodophenyl]propanoic acid], the “Triglycerides (Ave)” value ([1]; C57 mice, 1 Week High Dose, T2 2.5 mg/kg daily oral, group average) was 55.8, the Triglycerides ([1]; C57 mice, 1 Week High Dose, T2 2.5 mg/kg daily oral, individual animal, 2.5 mg/kg) was 42.161 and 68.02 and 45.486 and 50.657 and 72.822 and the “Triglycerides (Ave)” value ([1]; C57 mice, 1 Week Low Dose, T2 0.25 mg/kg daily oral, group average) was 29.5. The Triglycerides ([1]; C57 mice, 1 Week Low Dose, T2 0.25 mg/kg daily oral, individual animal, 0.25 mg/kg) was 24.835 and 29.673 and 13.299 and 36.371 and 43.441, the “Triglycerides (Ave)” value ([1]; LDLr0 mice (first group), 1 Week High Dose, T2 2.5 mg/kg daily oral, group average) was 192.1 and the Triglycerides ([1]; LDLr0 mice (first group), 1 Week High Dose, T2 2.5 mg/kg daily oral, individual animal, 2.5 mg/kg) was 173.672 and 210.614. For the same molecule, the “Triglycerides (Ave)” value ([1]; LDLr0 mice (first group), 1 Week Low Dose, T2 0.25 mg/kg daily oral, group average) was 183.0, the Triglycerides ([1]; LDLr0 mice (first group), 1 Week Low Dose, T2 0.25 mg/kg daily oral, individual animal, 0.25 mg/kg) was 230.244 and 106.329 and 212.382 and the “Triglycerides (Ave)” value ([1]; LDLr0 mice (second group), 1 Week Low Dose, T2 0.25 mg/kg daily oral, group average) was 236.2. For the same molecule, the Triglycerides ([1]; LDLr0 mice (second group), 1 Week Low Dose, T2 0.25 mg/kg daily oral, individual animal, 0.25 mg/kg) was 183.413 and 260.001 and 239.273 and 268.082 and 244.895 and 177.441 and 263.163 and 252.975, the “Triglycerides (Ave)” value ([1]; LDLr0 mice (second group), 2 Week High Dose (as headed), daily oral T2, group average) was 356.5 and the Triglycerides ([1]; LDLr0 mice (second group), 2 Week High Dose (as headed), daily oral T2, individual animal) was 225.895 and 274.993 and 402.246 and 281.673 and 462.031 and 223.557 and 485.745 and 496.099. For the same molecule, the “Triglycerides (Ave)” value ([1]; LDLr+/− mice, 1 Week High Dose, T2 2.5 mg/kg daily oral, group average) was 52.1, the Triglycerides ([1]; LDLr+/− mice, 1 Week High Dose, T2 2.5 mg/kg daily oral, individual animal, 2.5 mg/kg) was 40.683 and 35.511 and 62.848 and 68.389 and 37.359 and 68.02 and the “Triglycerides (Ave)” value ([1]; LDLr+/− mice, 1 Week Low Dose, T2 0.25 mg/kg daily oral, group average) was 31.4. The Triglycerides ([1]; LDLr+/− mice, 1 Week Low Dose, T2 0.25 mg/kg daily oral, individual animal, 0.25 mg/kg) was 12.927 and 34.138 and 40.464 and 29.673 and 31.161 and 40.092, the “effect on serum triglyceride levels” value ([1]; low and high dose T2, all genotypes) was “did not affect” and the “decrease in body weight” value ([2]; compared to controls) was 13%. The “decrease in hepatic fat mass” value ([2]; compared to controls) was 50%, the “increase in hepatic fat oxidation” value ([2]; compared to controls) was 42% and the lowering of cholesterol ([2]; compared to controls) was 18%. The “lowering of serum triglycerides” value ([2]; compared to controls) was 52%, the “heart rate, thyroid gland or heart weight, TSH, free T3, free T4, TSH response to TRH” value [2] was “not accompanied by an increase in heart rate” and the “potency relative to T3 in increasing growth hormone gene expression” value [3] was 1/100. For the same molecule, the “effect on thyroid receptor homodimer formation” value [4] was “no effect”, the “Blood Sugar Ave” value ([5]; C57 mice, 1 Week High Dose T2, group average) was 110.0 and the “Blood Sugar” value ([5]; C57 mice, 1 Week High Dose T2, individual animals) was 74 and 158 and 106 and 120 and 92. The “Blood Sugar Ave” value ([5]; C57 mice, 1 Week Low Dose T2, group average) was 170.0, the “Blood Sugar” value ([5]; C57 mice, 1 Week Low Dose T2, individual animals) was 151 and 203 and 186 and 190 and 120 and the “Blood Sugar Ave” value ([5]; LDLr0 mice, 1 Week High Dose T2, group average) was 94.0. The “Blood Sugar” value ([5]; LDLr0 mice, 1 Week High Dose T2, individual animals) was 87 and 101, the “Blood Sugar Ave” value ([5]; LDLr0 mice, 1 Week Low Dose T2, group average) was 92.0 and the “Blood Sugar” value ([5]; LDLr0 mice, 1 Week Low Dose T2, individual animals) was 143 and 54 and 79. For the same molecule, the “Blood Sugar Ave” value ([5]; LDLr+/− mice, 1 Week High Dose T2, group average) was 101.0, the “Blood Sugar” value ([5]; LDLr+/− mice, 1 Week High Dose T2, individual animals) was 108 and 99 and 112 and 94 and 113 and 80 and the “Blood Sugar Ave” value ([5]; LDLr+/− mice, 1 Week Low Dose T2, group average) was 201.0. The “Blood Sugar” value ([5]; LDLr+/− mice, 1 Week Low Dose T2, individual animals) was 202 and 146 and 235 and 171 and 242 and 210, the “lowered blood sugar levels, average” value ([5]; all genetic groups (C57, LDLr+/−, LDLr0), high dose T2 2.5 mg/kg daily oral, vs controls) was 45-50% and the “less potent than T3 in decreasing TR β gene expression” value [6] was 50%. For the same molecule, the Body weight (Ave) ([7]; High Dose T2 2.5 mg/kg daily oral, Day 1, group average) was 28.1 g, the Body weight ([7]; High Dose T2 2.5 mg/kg daily oral, Day 1, individual animal, 2.5 mg/kg) was 29.6 (2×) and 24.9 and 29.8 and 26.7 and the Body weight (Ave) ([7]; High Dose T2 2.5 mg/kg daily oral, Day 2, group average) was 28.4 g. The Body weight ([7]; High Dose T2 2.5 mg/kg daily oral, Day 2, individual animal, 2.5 mg/kg, in g (unit assumed)) was 29.5 and 30.1 and 25.8 and 29.7 and 27.1, the Body weight (Ave) ([7]; High Dose T2 2.5 mg/kg daily oral, Day 3, group average) was 28.4 g and the Body weight ([7]; High Dose T2 2.5 mg/kg daily oral, Day 3, individual animal, 2.5 mg/kg, in g (unit assumed)) was 29.8 and 30.0 and 25.1 and 29.9 and 27.2. The Body weight (Ave) ([7]; High Dose T2 2.5 mg/kg daily oral, Day 4, group average) was 27.4 g, the Body weight ([7]; High Dose T2 2.5 mg/kg daily oral, Day 4, individual animal, 2.5 mg/kg, in g (unit assumed)) was 29.1 and 28.7 and 23.4 and 28.8 and 27 and the Body weight (Ave) ([7]; High Dose T2 2.5 mg/kg daily oral, Day 5, group average) was 27.7 g. For the same molecule, the Body weight ([7]; High Dose T2 2.5 mg/kg daily oral, Day 5, individual animal, 2.5 mg/kg, in g (unit assumed)) was 29.7 and 29.1 and 24.1 and 28.5 and 27.3, the Body weight (Ave) ([7]; Low Dose T2 0.25 mg/kg daily oral, Day 1, group average) was 25.2 g and the Body weight ([7]; Low Dose T2 0.25 mg/kg daily oral, Day 1, individual animal, 0.25 mg/kg, in g (unit assumed)) was 26.5 and 27.0 and 23.0 and 26.4 and 24.0 and 24.1. The Body weight (Ave) ([7]; Low Dose T2 0.25 mg/kg daily oral, Day 2, group average) was 26.1 g, the Body weight ([7]; Low Dose T2 0.25 mg/kg daily oral, Day 2, individual animal, 0.25 mg/kg, in g (unit assumed)) was 28.2 and 27.7 and 24.1 and 26.3 and 25.5 and 24.9 and the Body weight (Ave) ([7]; Low Dose T2 0.25 mg/kg daily oral, Day 3, group average) was 26.5 g. The Body weight ([7]; Low Dose T2 0.25 mg/kg daily oral, Day 3, individual animal, 0.25 mg/kg, in g (unit assumed)) was 28.3 and 27.8 and 23.3 and 27.9 and 26.2 and 25.6 and the Body weight (Ave) ([7]; Low Dose T2 0.25 mg/kg daily oral, Day 4, group average) was 25.8 g.
